pIC50: −log10 of the molar value.
Target: rat PDE10 enzyme (Rattus norvegicus (Rat), UniProt Q9QYJ6)
Experiment: PDE10 scintillation proximity assay (SPA), inhibition of rat PDE10 enzyme activity
Type: biochemical
Details: geometric mean of 2-4 determinations unless otherwise indicated (b: ≧5 determinations; c: single determination)
Method: PDE10 activity was measured using a scintillation assay (SPA-based method) similar to that previously described by Seeger, T. F. et al., Brain Research 985 (2003) 113-126. The compounds' relative activity as PDE10 inhibitors was investigated by assaying a fixed amount of enzyme in the presence of the test compound and low substrate concentration (cAMP) such that an IC50 could be determined. […] The assay is performed in a 384-well format with 50 μL assay buffer (50 mM TRIS pH 7.5; 1.3 mM MgCl2; 0.01% Brij) containing enough PDE10 to convert ˜20% of 20 nM ^3H-cAMP, and a range of inhibitors. Reactions are incubated for 30 minutes at 25° C. The addition of 20 μL of 8 mg/ml yttrium silicate SPA beads (PerkinElmer) stops the reaction. The plates are sealed (TopSeal, PerkinElmer) and the beads are allowed to settle for 8 hrs, after which they are read on the Trilux Microbeta overnight. ^1Rat enzyme preparation:^2Human enzyme preparation:
The recombinant Bacmid was isolated and used to transfect sf9 insect cells to generate a viral stock. To generate cell paste for purification, sf21 cells were infected with the virus stock and cells were harvested 72 hours after infection as described in Seeger, T. F. et al., Brain Research 985 (2003) 113-126. Insect cell paste was lysed and after centrifugation, the supernatant was chromatographed on Ni-NTA agarose (Qiagen) followed by Mono Q (GE Healthcare Life Sciences) as described in Seeger, T. F. et al., Brain Research 985 (2003) 113-126.

Chain of rat PDE10 enzyme (Q9QYJ6 24-794): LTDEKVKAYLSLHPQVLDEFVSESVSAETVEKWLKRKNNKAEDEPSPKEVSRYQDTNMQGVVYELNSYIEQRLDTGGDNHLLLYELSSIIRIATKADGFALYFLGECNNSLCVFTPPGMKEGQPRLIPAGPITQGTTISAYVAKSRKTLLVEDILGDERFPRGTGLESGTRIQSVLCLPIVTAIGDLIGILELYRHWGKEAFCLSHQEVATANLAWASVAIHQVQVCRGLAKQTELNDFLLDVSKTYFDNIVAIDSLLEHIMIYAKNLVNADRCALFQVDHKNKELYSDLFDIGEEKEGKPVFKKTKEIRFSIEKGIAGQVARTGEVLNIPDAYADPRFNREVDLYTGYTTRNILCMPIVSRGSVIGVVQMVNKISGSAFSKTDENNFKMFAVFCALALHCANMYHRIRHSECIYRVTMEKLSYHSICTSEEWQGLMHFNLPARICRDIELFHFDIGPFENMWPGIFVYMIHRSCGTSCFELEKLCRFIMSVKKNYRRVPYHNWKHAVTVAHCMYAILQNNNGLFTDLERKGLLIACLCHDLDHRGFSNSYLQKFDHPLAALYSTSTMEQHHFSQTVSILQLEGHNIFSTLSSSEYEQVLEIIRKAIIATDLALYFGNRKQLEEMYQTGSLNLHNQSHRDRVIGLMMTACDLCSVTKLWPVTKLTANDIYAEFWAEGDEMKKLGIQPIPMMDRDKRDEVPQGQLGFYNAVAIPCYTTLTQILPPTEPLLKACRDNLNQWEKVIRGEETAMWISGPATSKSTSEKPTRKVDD

Row | SMILES | pIC50
1 | Cc1nc([C@H]2CCOC2)c2c(N3CCc4ncncc4C3)ncnn12 [Example 63, 6-{7-methyl-5-[(3R)-tetrahydrofuran-3-yl]imidazo[5,1-f][1,2,4]triazin-4-yl}-5,6,7,8-tetrahydropyrido[4,3-d]pyrimidine] | 6.88
2 | COc1ccc2c(n1)CN(c1ncnn3c(C)nc(-c4ccccc4F)c13)CC2 [Example 69, 7-[5-(2-fluorophenyl)-7-methylimidazo[5,1-f][1,2,4]triazin-4-yl]-2-methoxy-5,6,7,8-tetrahydro-1,7-naphthyridine] | 8.14
3 | Cc1ccc2c(n1)CN(c1ncnn3c(C)nc(-c4ccccc4F)c13)CC2 [Example 73, 7-[5-(2-fluorophenyl)-7-methylimidazo[5,1-f][1,2,4]triazin-4-yl]-2-methyl-5,6,7,8-tetrahydro-1,7-naphthyridine] | 8.17
4 | Cc1nc2c(o1)CN(c1ncnn3c(C)nc([C@H]4CCOC4)c13)CC2 [Example 76, 7-methyl-4-(2-methyl-6,7-dihydro[1,3]oxazolo[5,4-c]pyridin-5(4H)-yl)-5-[(3R)-tetrahydrofuran-3-yl]imidazo[5,1-f][1,2,4]triazine] | 7.64
5 | COc1cc2c(cc1OC)CN(c1ncnn3c(C)nc(C4CCCO4)c13)CC2 (stereo not shown) [Example 77, 6,7-dimethoxy-2-[7-methyl-5-(tetrahydrofuran-2-yl)imidazo[5,1-f][1,2,4]triazin-4-yl]-1,2,3,4-tetrahydroisoquinoline] | 7.52
6 | Cc1nc([C@H]2CCCO2)c2c(N3CCc4nc(C5CC5)ncc4C3)ncnn12 [Example 79] | 7.95
7 | CCc1nn(C)c2c1CN(c1ncnn3c(C)nc([C@H]4CCCO4)c13)CC2 [Example 80, 4-(3-ethyl-1-methyl-1,4,6,7-tetrahydro-5H-pyrazolo[4,3-c]pyridin-5-yl)-7-methyl-5-[(2R)-tetrahydrofuran-2-yl]imidazo[5,1-f][1,2,4]triazine] | 7.75
8 | Cc1nc2c(s1)CN(c1ncnn3c(C)nc([C@H]4CCCO4)c13)CC2 [Example 81] | 8.01
9 | COc1cc2c(cc1OC)CN(c1ncnn3c(C)nc([C@H]4CCCO4)c13)CC2 [Example 82, 6,7-dimethoxy-2-{7-methyl-5-[(2R)-tetrahydrofuran-2-yl]imidazo[5,1-f][1,2,4]triazin-4-yl}-1,2,3,4-tetrahydroisoquinoline] | 7.43
10 | COc1cc2c(cc1OC)CN(c1ncnn3c(C)nc([C@@H]4CCCO4)c13)CC2 [Example 83, 6,7-dimethoxy-2-{7-methyl-5-[(2S)-tetrahydrofuran-2-yl]imidazo[5,1-f][1,2,4]triazin-4-yl}-1,2,3,4-tetrahydroisoquinoline] | 7.53
11 | Cc1nn(C)c2c1CN(c1ncnn3c(C)nc([C@H]4CCOC4)c13)CC2 [Example 84, 4-(1,3-dimethyl-1,4,6,7-tetrahydro-5H-pyrazolo[4,3-c]pyridin-5-yl)-7-methyl-5-[(3R)-tetrahydrofuran-3-yl]imidazo[5,1-f][1,2,4]triazine] | 8.09
12 | Cc1nc(CC(C)C)c2c(N3CCc4ncccc4C3)ncnn12 [Example 97, 6-[7-methyl-5-(2-methylpropyl)imidazo[5,1-f][1,2,4]triazin-4-yl]-5,6,7,8-tetrahydro-1,6-naphthyridine] | 8.04
13 | Cc1nc([C@H]2CCOC2)c2c(N3CCc4c(cnn4C4CC4)C3)ncnn12 [Example 98, 4-(1-cyclopropyl-1,4,6,7-tetrahydro-5H-pyrazolo[4,3-c]pyridin-5-yl)-7-methyl-5-[(3R)-tetrahydrofuran-3-yl]imidazo[5,1-f][1,2,4]triazine] | 7.94
14 | Cc1nc([C@H]2CCOC2)c2c(N3CCc4nn(C)cc4C3)ncnn12 [Example 99, 7-methyl-4-(2-methyl-2,4,6,7-tetrahydro-5H-pyrazolo[4,3-c]pyridin-5-yl)-5-[(3R)-tetrahydrofuran-3-yl]imidazo[5,1-f][1,2,4]triazine] | 8.19
15 | Cc1nc([C@H]2CCOC2)c2c(N3CCc4nn(C(C)C)cc4C3)ncnn12 [Example 100, 7-methyl-4-[2-(propan-2-yl)-2,4,6,7-tetrahydro-5H-pyrazolo[4,3-c]pyridin-5-yl]-5-[(3R)-tetrahydrofuran-3-yl]imidazo[5,1-f][1,2,4]triazine] | 7.64
16 | Cc1nc(C2CCOCC2)c2c(N3CCn4ncc(C(F)(F)F)c4C3)ncnn12 [Example 102, 7-methyl-5-(tetrahydro-2H-pyran-4-yl)-4-[3-(trifluoromethyl)-6,7-dihydropyrazolo[1,5-a]pyrazin-5(4H)-yl]imidazo[5,1-f][1,2,4]triazine] | 8.40
17 | Cc1nn(C)c2c1CN(c1ncnn3c(C)nc(C4CCOCC4)c13)CC2 [Example 103, 4-(1,3-dimethyl-1,4,6,7-tetrahydro-5H-pyrazolo[4,3-c]pyridin-5-yl)-7-methyl-5-(tetrahydro-2H-pyran-4-yl)imidazo[5,1-f][1,2,4]triazine] | 8.29

Further lines, results first:

Row | pIC50 | SMILES
18 | > 8.45 | Cc1nc(C2CCOCC2)c2c(N3CCc4nc(C5CC5)ncc4C3)ncnn12 [Example 61, 2-cyclopropyl-6-[7-methyl-5-(tetrahydro-2H-pyran-4-yl)imidazo[5,1-f][1,2,4]triazin-4-yl]-5,6,7,8-tetrahydropyrido[4,3-d]pyrimidine]
19 | 8.41 | COc1cc2c(cc1OC)CN(c1ncnn3c(C)nc(-c4ccccc4C)c13)CC2 [Example 62, 6,7-dimethoxy-2-[7-methyl-5-(2-methylphenyl)imidazo[5,1-f][1,2,4]triazin-4-yl]-1,2,3,4-tetrahydroisoquinoline]
20 | 8.93 | COc1cc2c(cc1OC)CN(c1ncnn3c(C)nc(CC(C)C)c13)CC2 [Example 64, 2-(5-isobutyl-7-methylimidazo[5,1-f][1,2,4]triazin-4-yl)-6,7-dimethoxy-1,2,3,4-tetrahydroisoquinoline]
21 | 8.53 | Cc1nc(-c2ccccc2F)c2c(N3CCc4cccnc4C3)ncnn12 [Example 65]
22 | 8.59 | COc1ccc2c(n1)CCN(c1ncnn3c(C)nc(-c4ccccc4F)c13)C2 [Example 66, 6-[5-(2-fluorophenyl)-7-methylimidazo[5,1-f][1,2,4]triazin-4-yl]-2-methoxy-5,6,7,8-tetrahydro-1,6-naphthyridine]
23 | 9.49 | Cc1nc(-c2ccccc2F)c2c(N3CCc4nc(N(C)C)ccc4C3)ncnn12 [Example 67, 6-[5-(2-fluorophenyl)-7-methylimidazo[5,1-f][1,2,4]triazin-4-yl]-N,N-dimethyl-5,6,7,8-tetrahydro-1,6-naphthyridin-2-amine]
24 | 9.05 | COc1nccc2c1CN(c1ncnn3c(C)nc(-c4ccccc4F)c13)CC2 [Example 68, 2-[5-(2-fluorophenyl)-7-methylimidazo[5,1-f][1,2,4]triazin-4-yl]-8-methoxy-1,2,3,4-tetrahydro-2,7-naphthyridine]
25 | 8.41 | Cc1nc([C@H]2CCCO2)c2c(N3CCc4noc(C5CC5)c4C3)ncnn12 [Example 78, 4-(3-cyclopropyl-6,7-dihydro[1,2]oxazolo[4,3-c]pyridin-5(4H)-yl)-7-methyl-5-[(2R)-tetrahydrofuran-2-yl]imidazo[5,1-f][1,2,4]triazine]
26 | 8.90 | COc1ccc2c(c1)CCN(c1ncnn3c(C)nc([C@H]4CCOC4)c13)C2 [Example 87, 6-methoxy-2-{7-methyl-5-[(3R)-tetrahydrofuran-3-yl]imidazo[5,1-f][1,2,4]triazin-4-yl}-1,2,3,4-tetrahydroisoquinoline]
27 | 9.25 | Cc1nc([C@@H]2CCOC2)c2c(N3CCc4nc(C5CC5)nc(C(F)(F)F)c4C3)ncnn12 [Example 89, 2-cyclopropyl-6-{7-methyl-5-[(3S)-tetrahydrofuran-3-yl]imidazo[5,1-f][1,2,4]triazin-4-yl}-4-(trifluoromethyl)-5,6,7,8-tetrahydropyrido[4,3-d]pyrimidine]
28 | 9.12 | Cc1nn(C)c2c1CN(c1ncnn3c(C)nc([C@@H]4CCOC4)c13)CC2 [Example 93, 4-(1,3-dimethyl-1,4,6,7-tetrahydro-5H-pyrazolo[4,3-c]pyridin-5-yl)-7-methyl-5-[(3S)-tetrahydrofuran-3-yl]imidazo[5,1-f][1,2,4]triazine]
29 | 8.54 | Cc1nc(CC(C)C)c2c(N3CCc4noc(C5CC5)c4C3)ncnn12 [Example 94, 4-(3-cyclopropyl-6,7-dihydro[1,2]oxazolo[4,3-c]pyridin-5(4H)-yl)-7-methyl-5-(2-methylpropyl)imidazo[5,1-f][1,2,4]triazine]
30 | 9.55 | Cc1c2c(nn1C)CCN(c1ncnn3c(C)nc([C@@H]4CCOC4)c13)C2 [Example 101, 4-(2,3-dimethyl-2,4,6,7-tetrahydro-5H-pyrazolo[4,3-c]pyridin-5-yl)-7-methyl-5-[(3S)-tetrahydrofuran-3-yl]imidazo[5,1-f][1,2,4]triazine]
31 | 8.97 | Cc1nc(C2CCOCC2)c2c(N3CCc4nn(C)c(C(C)C)c4C3)ncnn12 [Example 104, 7-methyl-4[2-methyl-3-(propan-2-yl)-2,4,6,7-tetrahydro-5H-pyrazolo[4,3-c]pyridin-5-yl]-5-(tetrahydro-2H-pyran-4-yl)imidazo[5,1-f][1,2,4]triazine]

— patent publication US8933224B2, “Triazine derivatives” (Pfizer Inc., priority 2013, dated 2015)
